Where “and” joins values, the source holds several entries; their conditions need not be identical. Equal entries are not always repeated. Where two headings read alike, the source gives them in different places.
How the values were obtained:
[1] = system: white blood cell count
Method: Eleven human patients having initial white blood cell counts of 4,000-6,500 cells/mm^3 were used in the study. […] Aliquots from this stock solution were added to 50-ml bags of 0.9% saline for intravenous injection in amounts to achieve the desired dosage levels (10 μg/kg-80 μg/kg).
The subjects described in this Example already contained an indwelling peripheral intravenous catheter. […] Blood samples were obtained prior to the dose, and at various times up to 24 hours after dose administration.
Three patients were administered dosages of 10 μg/kg (open circles); 3 patients were administered dosages of 20 μg/kg (solid circles); 3 patients were administered 40 μg/kg (open triangles); and 2 patients were administered 80 μg/kg (closed triangles).

[2] = system: granulocyte macrophage (CFU-GM), erythroid (BFU-E), and multipotential (CFU-GEMM) progenitor cells; settings: for Absolute Number Progenitors Per ML Blood, BFU-E / Absolute Number Progenitors Per ML Blood, CFU-GEMM / Absolute Number Progenitors Per ML Blood, CFU-GM: 1 hour post administration; for Absolute Progenitors Per ML Blood, BFU-E / Absolute Progenitors Per ML Blood, CFU-GEMM / Absolute Progenitors Per ML Blood, CFU-GM: 5 mg/Kg single s.c.; for Absolute Progenitors Per ML Blood, BFU-E / Absolute Progenitors Per ML Blood, CFU-GEMM / Absolute Progenitors Per ML Blood, CFU-GM / Fold Change Compared to Time 0, progenitors BFU-E / Fold Change Compared to Time 0, progenitors CFU-GEMM / Fold Change Compared to Time 0, progenitors GM: methylcellulose culture
Method: Progenitors were stimulated to form colonies in vitro with the combination of 1 U/ml rhu Epo, 50 ng/ml rhu SLF, 5% Vol/Vol pokeweed mitogen mouse spleen cell conditioned medium (PWMSCM), and 0.1 mm hemin. Plates were scored 7 days after incubation.

[3] = system: WBC counts; settings: human, in vivo
[4] = system: progenitor cells; settings: AMD3100 5 mg/Kg s.c. + MIP-1α 5 μg I.V., 11 hours after rhu G-CSF or saline, 1 hour before blood
Method: Groups of mice were randomized to receive control diluent (saline) or G-CSF at a dose of 2.5 μg per mouse, twice a day, for two days via s.c. injection. […] One hour later, the mice were sacrificed and the number of progenitor cells per mL of blood were measured.

[5] = system: white blood cells, CD34 positive progenitor cells, CFU-GM, BFU-E, CFU-GEMM progenitor cells
Method: Five healthy human volunteers having initial white blood cell counts of 4,500-7,500 cells/mm^3 were used in the study. […] Blood samples were obtained via catheter prior to the dose, and at various times up to 24 hours after dosing.
The blood samples were evaluated for total white blood cells, CD34 positive progenitor cells (via FACS analysis) as a percentage of total white blood cells, as well as the absolute numbers per mL and cycling status of granulocyte macrophage (CFU-GM), erythroid (BFU-E), and multipotential (CFU-GEMM) progenitor cells.
All progenitor cell results are based on the scoring of 3 culture plates per assay per point.
For the progenitor cell numbers and cycling status, the numbers of CFU-GM, BFU-E and CFU-GEMM in methylcellulose cultures by stimulation of the cells with 1 Unit (U)/ml recombinant human (rhu) erythropoietin, 100 U/ml rhu granulocyte-macrophage colony stimulating factor (GM-CSF), 100 U/ml rhu interleukin-3 (IL-3) and 50 ng/ml rhu steel factor (SLF=stem cell factor (SCF)). The CFU-GM were also evaluated in agar cultures stimulated with 100 U/ml rhu GM-CSF and 50 ng/ml rhu SLF. For both types of assays, colonies were scored after 14 day incubation in a humidified atmosphere with 5% CO2 and lowered (5%) O2 tension. Cell cycling status of progenitors was measured using a high specific activity tritiated thymidine kill technique as previously described (Broxmeyer, H. E., et al., Exp. Hematol. (1989) 17:455-459).

[6] = system: WBC count and circulating CD34+ progenitor/stem cells; settings: single dose of 80 μg/kg, cited from earlier work
[7] = system: bone marrow stem cells; settings: administered within hours after coronary ligation, with or without rhG-CSF
Method: Adult rats are anesthetized and a thoracotomy is performed. The descending branch of the left coronary artery is ligated and not reperfused. […] Control rats are not treated with the reagents. The animals are monitored at one-week intervals by echocardiography and MRI. The experiment is terminated at 2, 6 to 12 weeks post-surgery. On the day of sacrifice, the hemodynamic functions are analyzed for left ventricle-end diastolic pressure, left ventricle-developed pressure and the rate of rise and fall of left ventricle pressure. The heart is then arrested in diastole and perfused via the abdominal aorta to flush residual blood from the vascular network of the myocardium. This is followed by perfusion of the heart with 10% formalin. Several slices are made through the fixed heart and these are embedded in paraffin and sections. The sections are stained and analyzed by light microscopy to determine the size of the infarct in the treated and control animals. Tissue sections from hearts taken at 2 weeks after surgery are stained with antibodies specific for immature, developing myocyte and blood vessel proteins and analyzed by confocal microscopy. The immunohistochemical analysis involves the identification of transcription factors and surface markers expressed in early stages of myocyte development.

[8] = T = 1 hours after injection, average of 5 donors

**Q.** Which results are given for `c1cc(CN2CCCNCCNCCCNCC2)ccc1CN1CCCNCCNCCCNCC1` [AMD3100, 1,1′-[1,4-phenylenebis(methylene)]-bis-1,4,8,11-tetra-azacyclotetradecane]?
**A.** Change of white blood cell count ([1]; all patients, 10-80 μg/kg intravenous, succeeding 5-10 hours after administration): marked increase in white blood cell count; Peak white blood cell count ([1]; one patient, 80 μg/kg intravenous, from 6,000 cells/mm^3): 19,000 cells/mm^3; White blood cell count after increase ([1]; patient showing the least response, 20 μg/kg intravenous, from about 6,300 cells/mm^3): about 9,000 cells/mm^3; Absolute Number Progenitors Per ML Blood, BFU-E ([2]; 1 mg/kg single s.c.): 62 Per ML Blood; Absolute Number Progenitors Per ML Blood, CFU-GEMM ([2]; 1 mg/kg single s.c.): 27.1 Per ML Blood; Absolute Number Progenitors Per ML Blood, CFU-GM ([2]; 1 mg/kg single s.c.): 424 Per ML Blood; Absolute Number Progenitors Per ML Blood, BFU-E ([2]; 2.5 mg/kg single s.c.): 98.9 Per ML Blood; Absolute Number Progenitors Per ML Blood, CFU-GEMM ([2]; 2.5 mg/kg single s.c.): 70.6 Per ML Blood; Absolute Number Progenitors Per ML Blood, CFU-GM ([2]; 2.5 mg/kg single s.c.): 687.6 Per ML Blood; Absolute Progenitors Per ML Blood, BFU-E ([2]; 15″): 134.5 Per ML Blood; Absolute Progenitors Per ML Blood, CFU-GEMM ([2]; 15″): 90.4 Per ML Blood; Absolute Progenitors Per ML Blood, CFU-GM ([2]; 15″): 791.6 Per ML Blood; Absolute Progenitors Per ML Blood, BFU-E ([2]; 30″): 209.3 Per ML Blood; Absolute Progenitors Per ML Blood, CFU-GEMM ([2]; 30″): 113.5 Per ML Blood; Absolute Progenitors Per ML Blood, CFU-GM ([2]; 30″): 1805.5 Per ML Blood; Absolute Progenitors Per ML Blood, BFU-E ([2]; 120″): 102.3 Per ML Blood; Absolute Progenitors Per ML Blood, CFU-GEMM ([2]; 120″): 47.6 Per ML Blood; Absolute Progenitors Per ML Blood, CFU-GM ([2]; 120″): 828.7 Per ML Blood; Absolute Number Progenitors Per ML Blood, BFU-E ([2]; 5 mg/kg single s.c.): 92.8 Per ML Blood; Absolute Number Progenitors Per ML Blood, CFU-GEMM ([2]; 5 mg/kg single s.c.): 69.5 Per ML Blood; Absolute Number Progenitors Per ML Blood, CFU-GM ([2]; 5 mg/kg single s.c.): 608.4 Per ML Blood; Absolute Number Progenitors Per ML Blood, BFU-E ([2]; 10 mg/kg single s.c.): 120.5 Per ML Blood; Absolute Number Progenitors Per ML Blood, CFU-GEMM ([2]; 10 mg/kg single s.c.): 79.8 Per ML Blood; Absolute Number Progenitors Per ML Blood, CFU-GM ([2]; 10 mg/kg single s.c.): 825.6 Per ML Blood; Fold Change Compared to Time 0, progenitors BFU-E ([2]; Time 2′): 2.07 fold; Fold Change Compared to Time 0, progenitors CFU-GEMM ([2]; Time 2′): 1.85 fold; Fold Change Compared to Time 0, progenitors GM ([2]; Time 2′): 2.86 fold; Fold Change Compared to Time 0, progenitors BFU-E ([2]; Time 15″): 2.72 fold; Fold Change Compared to Time 0, progenitors CFU-GEMM ([2]; Time 15″): 3.51 fold; Fold Change Compared to Time 0, progenitors GM ([2]; Time 15″): 2.73 fold; Fold Change Compared to Time 0, progenitors BFU-E ([2]; Time 30″): 4.24 fold; Fold Change Compared to Time 0, progenitors CFU-GEMM ([2]; Time 30″): 4.41 fold; Fold Change Compared to Time 0, progenitors GM ([2]; Time 30″): 6.23 fold; Time until WBC counts returned to baseline after discontinuation of the infusion [3]: 7 days; Mobilization of progenitor cells in combination with mu MIP-1α [4]: additive to greater than additive; Time of maximal elevation of white blood cell count and CD34 positive progenitor cells post-administration ([5]; 80 μg/kg single s.c.): 6 h; Mobilization of white blood cells in individual volunteers ([5]; 80 μg/kg single s.c., 2 Hr, volunteers P1-P5): 12.4 ×10^3 WBC's and 21.4 ×10^3 WBC's and 13.5 ×10^3 WBC's; % CHG, CFU-GEMM, methylcellulose culture ([5]; T = 1, average of 5 donors): 131.8%; % CHG, CFU-GM, agar culture ([5]; T = 1, average of 5 donors): 180.8%; % CHG, CFU-GM, methylcellulose culture ([5]; T = 1, average of 5 donors): 376.7%; Fold change, BFU-E, methylcellulose culture, MEAN ([5]; T = 1, average of 5 donors): 1.99 fold; Fold change, CFU-GEMM, methylcellulose culture, MEAN ([5]; T = 1, average of 5 donors): 2.32 fold; Fold change, CFU-GM, agar culture, MEAN ([5]; T = 1, average of 5 donors): 2.81 fold; Fold change, CFU-GM, methylcellulose culture, MEAN ([5]; T = 1, average of 5 donors): 4.77 fold; % CHG, BFU-E, methylcellulose culture ([5]; T = 3, average of 5 donors): 221.3%; % CHG, CFU-GEMM, methylcellulose culture ([5]; T = 3, average of 5 donors): 332.5%; % CHG, CFU-GM, agar culture ([5]; T = 3, average of 5 donors): 754.1%; % CHG, CFU-GM, methylcellulose culture ([5]; T = 3, average of 5 donors): 1266.5%; % CHG, nucleated cellularity PBL-LD ([5]; T = 3, average of 5 donors): 185.6%; % CHG, nucleated cellularity PBL-US ([5]; T = 3, average of 5 donors): 180.2%; Fold change compared to TIME = 0, nucleated cellularity PBL-LD, MEAN ([5]; T = 3, average of 5 donors): 2.86 fold; Fold change compared to TIME = 0, nucleated cellularity PBL-US, MEAN ([5]; T = 3, average of 5 donors): 2.80 fold; Fold change, BFU-E, methylcellulose culture, MEAN ([5]; T = 3, average of 5 donors): 3.21 fold; Fold change, CFU-GEMM, methylcellulose culture, MEAN ([5]; T = 3, average of 5 donors): 4.33 fold; Fold change, CFU-GM, agar culture, MEAN ([5]; T = 3, average of 5 donors): 8.54 fold; Fold change, CFU-GM, methylcellulose culture, MEAN ([5]; T = 3, average of 5 donors): 13.66 fold; % CHG, BFU-E, methylcellulose culture ([5]; T = 6, average of 5 donors): 500.5%; % CHG, CFU-GEMM, methylcellulose culture ([5]; T = 6, average of 5 donors): 907.2%; % CHG, CFU-GM, agar culture ([5]; T = 6, average of 5 donors): 1692.8%; % CHG, CFU-GM, methylcellulose culture ([5]; T = 6, average of 5 donors): 2070.6%; % CHG, nucleated cellularity PBL-LD ([5]; T = 6, average of 5 donors): 266.3%; % CHG, nucleated cellularity PBL-US ([5]; T = 6, average of 5 donors): 225.8%; Fold change compared to TIME = 0, nucleated cellularity PBL-LD, MEAN ([5]; T = 6, average of 5 donors): 3.66 fold; Fold change compared to TIME = 0, nucleated cellularity PBL-US, MEAN ([5]; T = 6, average of 5 donors): 3.26 fold; Fold change, BFU-E, methylcellulose culture, MEAN ([5]; T = 6, average of 5 donors): 6.01 fold; Fold change, CFU-GEMM, methylcellulose culture, MEAN ([5]; T = 6, average of 5 donors): 10.07 fold; Fold change, CFU-GM, agar culture, MEAN ([5]; T = 6, average of 5 donors): 17.93 fold; Fold change, CFU-GM, methylcellulose culture, MEAN ([5]; T = 6, average of 5 donors): 21.71 fold; % CHG, BFU-E, methylcellulose culture ([5]; T = 9, average of 5 donors): 334.4%; % CHG, CFU-GEMM, methylcellulose culture ([5]; T = 9, average of 5 donors): 425.4%; % CHG, CFU-GM, methylcellulose culture ([5]; T = 9, average of 5 donors): 947.3%; % CHG, nucleated cellularity PBL-LD ([5]; T = 9, average of 5 donors): 264.3%; % CHG, nucleated cellularity PBL-US ([5]; T = 9, average of 5 donors): 209.4%; Fold change compared to TIME = 0, nucleated cellularity PBL-LD, MEAN ([5]; T = 9, average of 5 donors): 3.64 fold; Fold change compared to TIME = 0, nucleated cellularity PBL-US, MEAN ([5]; T = 9, average of 5 donors): 3.09 fold; Fold change, BFU-E, methylcellulose culture, MEAN ([5]; T = 9, average of 5 donors): 4.34 fold; Fold change, CFU-GEMM, methylcellulose culture, MEAN ([5]; T = 9, average of 5 donors): 5.25 fold; Fold change, CFU-GM, methylcellulose culture, MEAN ([5]; T = 9, average of 5 donors): 10.47 fold; % CHG, CFU-GM, agar culture ([5]; T = 9, average of donors): 924.9%; Fold change, CFU-GM, agar culture, MEAN ([5]; T = 9, average of donors): 10.25 fold; % CHG, BFU-E, methylcellulose culture ([5]; T = 24, average of 5 donors): 26.3%; % CHG, CFU-GEMM, methylcellulose culture ([5]; T = 24, average of 5 donors): 53.2%; % CHG, CFU-GM, methylcellulose culture ([5]; T = 24, average of 5 donors): 55.5%; % CHG, nucleated cellularity PBL-US ([5]; T = 24, average of 5 donors): 7.0%; Fold change compared to TIME = 0, nucleated cellularity PBL-LD, MEAN ([5]; T = 24, average of 5 donors): 1.05 fold; Fold change compared to TIME = 0, nucleated cellularity PBL-US, MEAN ([5]; T = 24, average of 5 donors): 1.07 fold; Fold change, BFU-E, methylcellulose culture, MEAN ([5]; T = 24, average of 5 donors): 1.26 fold; Fold change, CFU-GEMM, methylcellulose culture, MEAN ([5]; T = 24, average of 5 donors): 1.53 fold; Fold change, CFU-GM, methylcellulose culture, MEAN ([5]; T = 24, average of 5 donors): 1.56 fold; % CHG, CFU-GM, agar culture ([5]; T = 24, average of donors): 108.3%; Fold change, CFU-GM, agar culture, MEAN ([5]; T = 24, average of donors): 2.08 fold; % CHG, nucleated cellularity PBL-LD [5, 8]: 86.2%; % CHG, nucleated cellularity PBL-US [5, 8]: 68.6%; Fold change compared to TIME = 0, nucleated cellularity PBL-LD, MEAN [5, 8]: 1.86 fold; Fold change compared to TIME = 0, nucleated cellularity PBL-US, MEAN [5, 8]: 1.69 fold; Time of maximal fold increases in circulating levels of progenitor cells after injection ([5]; all five donors): 6 h; Peak increase in circulating CD34+ progenitor/stem cells ([6]; 6 hour time point): 6 fold; WBC count [6]: 17,000 /μl; Expected effect after induction of cardiac ischemia [7]: mobilizes bone marrow stem cells rapidly
